Results reported in ChEMBL document CHEMBL4325862, “Identification of novel quinazoline derivatives as potent antiplasmodial agents” (Eur J Med Chem, 2019).
Activity calls are given as the source filed them. The calls are words filed in the database; no cut-off is given here.

Experiments:
[1] = Plasma concentration in Crl:NRMI mouse at 10 mg/kg, iv measured after 180 mins by LC-MS/MS analysis; format: ADME, organism-based
[2] = Selectivity index, ratio of IC50 for mouse spleen cells to IC50 for asynchronous form of Plasmodium falciparum 3D7 infected in human erythrocytes; format: toxicity, cell-based; settings: read-out: Ratio IC50
[3] = Solubility of the compound in DPBS at >1 ug/ml; format: physicochemical
Plasmodium berghei [4] = assay: Antimalarial activity against Plasmodium berghei ANKA infected in BALB/c mouse assessed as reduction in parasitemia at 20 mg/kg, po administered twice daily for 4 days measured day 6 to 11 post infection by Giemsa-staining based microscopic analysis; format: functional, organism-based
[5] = Plasma concentration in Crl:NRMI mouse at 10 mg/kg, po administered via gavage measured after 30 mins by LC-MS/MS analysis; format: ADME, organism-based
Plasmodium falciparum [6] = assay: Antiplasmodial activity against asynchronous form of Plasmodium falciparum 3D7 infected in human erythrocytes assessed as parasite growth inhibition at 10 uM after 48 hrs by SYBR green1 staining based flow cytometry relative to control; format: functional; settings: 3D7, 48 h
[7] = Stability in phosphate buffered saline at pH 7.4 assessed as parent compound remaining after 24 hrs by UV/RP-HPLC analysis; format: physicochemical; settings: read-out: Stability
Plasmodium berghei [8] = assay: Antimalarial activity against Plasmodium berghei ANKA infected in BALB/c mouse assessed as reduction in parasitemia at 20 mg/kg, po administered twice daily for 5 days by Giemsa-staining based microscopic analysis; format: functional, organism-based
Plasmodium falciparum [9] = assay: Antiplasmodial activity against asynchronous form of Plasmodium falciparum W2 infected in human erythrocytes assessed as parasite growth inhibition after 48 hrs by SYBR green1 staining based flow cytometry; format: functional, organism-based; settings: W2, 48 h
[10] = biological target: T1, Histone-lysine N-methyltransferase EHMT2 (Homo sapiens, UniProt Q96KQ7); assay: Inhibition of recombinant human N-terminal GST-fused G9a (786 to 1210 residues) expressed in Escherichia coli using biotinylated H3 (1 to 21 residues) as substrate measured after 1 hr in presence of 3H-Adomet by filter binding assay
T1 sequence (Q96KQ7 whole entry): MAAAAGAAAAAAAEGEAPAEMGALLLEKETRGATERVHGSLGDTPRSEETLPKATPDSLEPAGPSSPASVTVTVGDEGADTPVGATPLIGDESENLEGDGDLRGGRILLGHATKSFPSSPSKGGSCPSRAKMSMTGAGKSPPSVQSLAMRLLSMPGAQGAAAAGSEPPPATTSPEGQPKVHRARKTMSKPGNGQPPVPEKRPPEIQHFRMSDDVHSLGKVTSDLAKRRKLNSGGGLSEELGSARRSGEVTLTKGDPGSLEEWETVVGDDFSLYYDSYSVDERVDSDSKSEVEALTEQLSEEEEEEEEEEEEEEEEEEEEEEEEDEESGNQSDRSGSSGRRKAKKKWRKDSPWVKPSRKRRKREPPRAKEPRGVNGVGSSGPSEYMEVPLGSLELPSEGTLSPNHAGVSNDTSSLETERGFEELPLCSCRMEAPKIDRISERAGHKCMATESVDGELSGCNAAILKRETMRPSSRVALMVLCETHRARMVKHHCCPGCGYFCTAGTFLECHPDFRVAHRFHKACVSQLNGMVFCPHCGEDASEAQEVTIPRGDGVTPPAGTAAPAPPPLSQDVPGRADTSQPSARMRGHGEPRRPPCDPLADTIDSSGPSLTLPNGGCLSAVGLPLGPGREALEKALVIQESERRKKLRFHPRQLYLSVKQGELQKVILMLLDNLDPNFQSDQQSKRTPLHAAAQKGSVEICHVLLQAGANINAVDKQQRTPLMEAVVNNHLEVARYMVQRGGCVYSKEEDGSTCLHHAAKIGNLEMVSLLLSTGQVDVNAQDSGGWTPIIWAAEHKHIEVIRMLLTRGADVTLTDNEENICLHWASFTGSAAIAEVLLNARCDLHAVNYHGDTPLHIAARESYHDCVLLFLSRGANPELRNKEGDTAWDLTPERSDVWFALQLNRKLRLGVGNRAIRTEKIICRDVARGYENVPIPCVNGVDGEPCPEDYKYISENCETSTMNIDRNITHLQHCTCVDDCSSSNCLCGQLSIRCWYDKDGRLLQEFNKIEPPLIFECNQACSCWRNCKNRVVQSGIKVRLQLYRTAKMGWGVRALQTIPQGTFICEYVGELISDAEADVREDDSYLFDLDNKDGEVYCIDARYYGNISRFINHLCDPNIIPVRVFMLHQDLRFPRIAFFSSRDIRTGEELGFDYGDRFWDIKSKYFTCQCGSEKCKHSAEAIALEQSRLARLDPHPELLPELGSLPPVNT

Plasmodium falciparum [11] = assay: Antiplasmodial activity against Plasmodium falciparum Dd2 infected in human erythrocytes assessed as reduction in [3H]-hypoxanthine incorporation measured after 48 hrs by microbeta liquid scintillation counting method; format: functional, organism-based
[12] = Plasma concentration in Crl:NRMI mouse at 10 mg/kg, po administered via gavage measured after 60 mins by LC-MS/MS analysis; format: ADME, organism-based
[13] = Cytotoxicity against mouse spleen cells; format: cell-based
Plasmodium berghei [14] = assay: Antimalarial activity against Plasmodium berghei ANKA infected in BALB/c mouse assessed as reduction in parasitemia at 20 mg/kg, po administered twice daily for 4 days by Giemsa-staining based microscopic analysis; format: functional, organism-based
[15] = biological target: DNA (cytosine-5)-methyltransferase 1 (Homo sapiens, UniProt P26358); assay: Inhibition of recombinant human DNMT1 using biotinylated DNA duplex as substrate measured after 2 hrs in presence of Adomet/[methyl-3H]Adomet by topcount method
Plasmodium falciparum [16] = assay: Antiplasmodial activity against asynchronous form of Plasmodium falciparum 3D7 infected in human erythrocytes assessed as parasite growth inhibition after 48 hrs by SYBR green1 staining based flow cytometry; format: functional, organism-based; settings: 3D7, 48 h
[17] = Plasma concentration in Crl:NRMI mouse at 10 mg/kg, iv measured after 15 mins by LC-MS/MS analysis; format: ADME, organism-based
HFF = assay: Cytotoxicity against HFF; format: cell-based; settings: Homo sapiens
[18] = Plasma concentration in Crl:NRMI mouse at 10 mg/kg, iv measured after 60 mins by LC-MS/MS analysis; format: ADME, organism-based
[19] = biological target: T2, DNA (cytosine-5)-methyltransferase 3A (Homo sapiens, UniProt Q9Y6K1); assay: Inhibition of recombinant human DNMT3a C-terminal catalytic domain (623 to 908 residues) using 5'-biotinylated/3'-FAM-oligonucleotide as substrate measured after 1 hr in presence of Adomet by fluorescence assay
[20] = Plasma concentration in Crl:NRMI mouse at 10 mg/kg, po administered via gavage measured after 180 mins by LC-MS/MS analysis; format: ADME, organism-based
[21] = biological target: T2, DNA (cytosine-5)-methyltransferase 3A; assay: Inhibition of recombinant human DNMT3a C-terminal catalytic domain (623 to 908 residues) at 10 uM using 5'-biotinylated/3'-FAM-oligonucleotide as substrate measured after 1 hr in presence of Adomet by fluorescence assay relative to control
[22] = Plasma concentration in Crl:NRMI mouse at 50 mg/kg, po administered via gavage measured after 180 mins by LC-MS/MS analysis; format: ADME, organism-based
[23] = Plasma concentration in Crl:NRMI mouse at 50 mg/kg, po administered via gavage measured after 30 mins by LC-MS/MS analysis; format: ADME, organism-based
[24] = Acute toxicity in Crl:NRMI mouse assessed as death at 50 mg/kg, iv measured after 15 to 180 mins by LC-MS/MS analysis; format: organism-based; settings: in vivo
[25] = Stability in phosphate buffered saline at pH 7.4 after 24 hrs by UV/RP-HPLC analysis; format: physicochemical; settings: buffer, pH 7.4, 24 h
Plasmodium berghei [26] = assay: Antimalarial activity against Plasmodium berghei ANKA infected in BALB/c mouse assessed as reduction in parasitemia at 50 mg/kg, po administered twice daily for 4 days by Giemsa-staining based microscopic analysis; format: functional, organism-based
Plasmodium berghei [27] = assay: Antimalarial activity against Plasmodium berghei ANKA infected in BALB/c mouse assessed as parasitemia at 50 mg/kg, po administered twice daily for 4 days measured up to 14 days post infection by Giemsa-staining based microscopic analysis (reference value: 31 to 58%); format: functional
[28] = Plasma concentration in Crl:NRMI mouse at 50 mg/kg, po administered via gavage measured after 60 mins by LC-MS/MS analysis; format: ADME, organism-based
[29] = Plasma concentration in Crl:NRMI mouse at 50 mg/kg, iv measured after 180 mins by LC-MS/MS analysis; format: ADME, organism-based
[30] = tested on: Plasmodium falciparum 3D7; assay: Inhibition of Plasmodium falciparum 3D7 HDAC assessed as increase in histone H4 acetylation at 3 times antiplasmodial IC50 relative to control
[31] = Plasma concentration in Crl:NRMI mouse at 50 mg/kg, iv measured after 60 mins by LC-MS/MS analysis; format: ADME, organism-based
[32] = Plasma concentration in Crl:NRMI mouse at 50 mg/kg, iv measured after 15 mins by LC-MS/MS analysis; format: ADME, organism-based
Plasmodium berghei [33] = assay: Antimalarial activity against Plasmodium berghei ANKA infected in BALB/c mouse assessed as reduction in parasitemia at 50 mg/kg, po administered twice daily (one dose iv and one dose po) for 4 days by Giemsa-staining based microscopic analysis; format: functional, organism-based
Plasmodium berghei [34] = assay: Antimalarial activity against Plasmodium berghei ANKA infected in BALB/c mouse assessed as parasitemia at 25 mg/kg, po administered twice daily for 4 days measured up to 14 days post infection by Giemsa-staining based microscopic analysis (reference value: 4%); format: functional
[35] = Toxicity in BALB/c mouse infected with Plasmodium berghei ANKA assessed as death at 50 mg/kg, po administered twice daily for 4 days; format: organism-based; settings: in vivo, 96 h
Plasmodium berghei [36] = assay: Antimalarial activity against Plasmodium berghei ANKA infected in BALB/c mouse assessed as reduction in parasitemia at 25 mg/kg, po administered twice daily for 4 days by Giemsa-staining based microscopic analysis; format: functional, organism-based
[37] = Toxicity in BALB/c mouse infected with Plasmodium berghei ANKA assessed as death at 25 mg/kg, po administered twice daily for 4 days; format: organism-based; settings: in vivo, 96 h
Plasmodium berghei [38] = assay: Antimalarial activity against Plasmodium berghei ANKA infected in BALB/c mouse assessed as reduction in parasitemia at 10 mg/kg, po administered twice daily for 4 days by Giemsa-staining based microscopic analysis; format: functional, organism-based
Plasmodium berghei [39] = assay: Antimalarial activity against Plasmodium berghei ANKA infected in BALB/c mouse assessed as reduction in parasitemia at 10 mg/kg, po administered once daily for 4 days by Giemsa-staining based microscopic analysis; format: functional, organism-based

Chain of DNA (cytosine-5)-methyltransferase 1 (P26358 whole entry): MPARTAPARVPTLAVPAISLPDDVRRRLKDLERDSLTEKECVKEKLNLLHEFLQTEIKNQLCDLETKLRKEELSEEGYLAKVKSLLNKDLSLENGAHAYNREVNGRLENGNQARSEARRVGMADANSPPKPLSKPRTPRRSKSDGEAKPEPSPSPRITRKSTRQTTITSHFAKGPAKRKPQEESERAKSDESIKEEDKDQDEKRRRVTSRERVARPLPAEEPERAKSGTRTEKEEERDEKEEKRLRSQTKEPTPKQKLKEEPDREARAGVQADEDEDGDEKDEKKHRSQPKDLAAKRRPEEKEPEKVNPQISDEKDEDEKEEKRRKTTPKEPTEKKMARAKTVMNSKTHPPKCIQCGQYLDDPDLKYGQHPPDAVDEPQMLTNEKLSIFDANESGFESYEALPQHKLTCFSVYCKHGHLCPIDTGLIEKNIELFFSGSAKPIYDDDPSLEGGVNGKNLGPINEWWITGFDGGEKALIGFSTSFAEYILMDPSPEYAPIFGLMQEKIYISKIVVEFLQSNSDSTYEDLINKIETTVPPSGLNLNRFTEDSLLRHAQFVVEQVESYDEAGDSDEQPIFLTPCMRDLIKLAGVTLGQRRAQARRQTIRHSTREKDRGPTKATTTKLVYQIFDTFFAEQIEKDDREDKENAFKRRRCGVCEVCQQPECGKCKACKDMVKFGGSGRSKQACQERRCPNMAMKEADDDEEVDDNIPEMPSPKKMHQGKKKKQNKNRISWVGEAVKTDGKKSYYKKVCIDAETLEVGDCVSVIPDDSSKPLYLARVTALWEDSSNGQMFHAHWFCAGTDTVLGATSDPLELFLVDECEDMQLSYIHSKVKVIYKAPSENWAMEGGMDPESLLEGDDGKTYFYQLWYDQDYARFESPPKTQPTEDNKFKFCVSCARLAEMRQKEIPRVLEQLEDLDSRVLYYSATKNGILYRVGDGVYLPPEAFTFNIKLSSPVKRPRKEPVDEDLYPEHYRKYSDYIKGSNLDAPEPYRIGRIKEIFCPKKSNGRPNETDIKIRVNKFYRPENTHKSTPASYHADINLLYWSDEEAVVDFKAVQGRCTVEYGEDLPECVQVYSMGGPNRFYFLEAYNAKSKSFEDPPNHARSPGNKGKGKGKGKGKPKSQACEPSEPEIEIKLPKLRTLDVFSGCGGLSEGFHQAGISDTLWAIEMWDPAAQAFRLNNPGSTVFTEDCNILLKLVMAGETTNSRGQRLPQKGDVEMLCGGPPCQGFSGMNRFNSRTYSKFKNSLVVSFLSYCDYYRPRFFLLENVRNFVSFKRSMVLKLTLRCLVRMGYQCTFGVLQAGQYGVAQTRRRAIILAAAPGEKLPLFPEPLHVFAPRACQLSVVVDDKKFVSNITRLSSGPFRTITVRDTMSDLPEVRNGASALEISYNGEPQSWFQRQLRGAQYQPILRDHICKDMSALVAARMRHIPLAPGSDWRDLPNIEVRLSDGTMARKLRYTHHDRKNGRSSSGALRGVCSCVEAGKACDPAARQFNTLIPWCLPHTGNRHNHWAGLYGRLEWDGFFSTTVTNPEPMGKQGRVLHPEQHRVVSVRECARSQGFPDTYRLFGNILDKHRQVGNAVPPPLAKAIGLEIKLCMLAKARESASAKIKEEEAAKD
T2 sequence (Q9Y6K1 whole entry, looked up, the tested form may be a part): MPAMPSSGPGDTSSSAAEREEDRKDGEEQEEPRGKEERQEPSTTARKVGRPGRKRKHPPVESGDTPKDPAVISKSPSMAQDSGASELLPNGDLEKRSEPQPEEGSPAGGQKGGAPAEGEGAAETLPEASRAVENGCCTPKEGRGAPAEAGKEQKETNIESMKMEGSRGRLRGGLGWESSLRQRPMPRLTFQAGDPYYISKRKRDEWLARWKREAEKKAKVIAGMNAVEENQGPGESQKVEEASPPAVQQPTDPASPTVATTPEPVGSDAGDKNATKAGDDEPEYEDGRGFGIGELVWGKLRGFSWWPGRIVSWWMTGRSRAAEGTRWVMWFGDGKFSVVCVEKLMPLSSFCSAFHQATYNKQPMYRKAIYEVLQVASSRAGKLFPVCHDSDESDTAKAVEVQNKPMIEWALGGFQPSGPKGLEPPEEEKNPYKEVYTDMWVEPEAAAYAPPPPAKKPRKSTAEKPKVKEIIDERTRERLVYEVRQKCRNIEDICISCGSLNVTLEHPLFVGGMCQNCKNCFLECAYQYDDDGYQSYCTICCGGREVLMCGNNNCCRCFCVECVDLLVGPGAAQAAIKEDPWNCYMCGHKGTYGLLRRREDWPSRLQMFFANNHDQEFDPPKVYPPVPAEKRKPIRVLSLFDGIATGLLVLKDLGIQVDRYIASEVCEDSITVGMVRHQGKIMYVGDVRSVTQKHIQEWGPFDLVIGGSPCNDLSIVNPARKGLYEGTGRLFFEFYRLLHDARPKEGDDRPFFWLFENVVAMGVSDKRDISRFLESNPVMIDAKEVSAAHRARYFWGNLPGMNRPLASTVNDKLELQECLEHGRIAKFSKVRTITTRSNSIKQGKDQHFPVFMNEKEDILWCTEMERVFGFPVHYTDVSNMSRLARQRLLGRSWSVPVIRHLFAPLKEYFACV

Row | SMILES | selectivity ratio [2] | inhibition at 10 µM (Plasmodium falciparum [6]) [%] | IC50 (Plasmodium falciparum [9]) [nM] | EC50 [10] [nM] | IC50 (Plasmodium falciparum [11]) [nM] | IC50 [13] [nM] | EC50 [15] [nM] | IC50 (Plasmodium falciparum [16]) [nM] | IC50 (HFF) [nM] | EC50 [19] [nM] | concentration at 3 h [22] [nM] | concentration at 0.5 h [23] [nM] | Activity [24] | Stability [25] | Activity (Plasmodium berghei [26]) | concentration at 1 h [28] [nM] | other results
1 | COc1cc2nc(NCc3ccc(F)cc3)nc(NC3CCN(C(=O)OC(C)(C)C)CC3)c2cc1OC | > 500 | 100 | 43.6 | 137000 | 18.5 | > 10000 | > 100000 | 18.7 to 18.9 | 7170 | 8700 | – | – | – | – | – | – | concentration at 3 h [1]: 220 to 460 nM; solubility [3]: Insoluble; Activity (Plasmodium berghei [4]): inactive; concentration at 0.5 h [5]: 120 to 130 nM; remaining at 24 h [7]: 60%; Activity (Plasmodium berghei [8]): Active; concentration at 1 h [12]: 100 to 280 nM; Activity (Plasmodium berghei [14]): Active; concentration at 0.25 h [17]: 3410 to 5110 nM; concentration at 1 h [18]: 930 to 1110 nM; concentration at 3 h [20]: 30 nM
2 | c1ccc(COc2ccc3c(NC4CCN(Cc5ccccc5)CC4)nc(N4CCN(c5ccccc5)CC4)nc3c2)cc1 | – | 100 | – | – | – | – | – | 66.9 | – | – | – | – | – | – | – | – | inhibition [21]: 43%
3 | COc1cc2c(NC3CCN(Cc4ccccc4)CC3)nc(N3CCN(c4ccccc4)CC3)nc2cc1O | 255 | 100 | 18.6 | > 100000 | 42.6 | 2580 | > 100000 | 10.1 | 7210 | 6200 | 290 to 670 | 3430 to 4570 | Toxic | Stable | Active | 1040 to 3520 | Activity (Plasmodium berghei [27]): <10%
4 | O=C(CCCCSc1nc(-c2ccc(-c3ccccc3)cc2)cc(=O)[nH]1)NO | 186 | 96.1 to 97 | 6.6 | – | 4 | 785 | – | 4 to 6 | 3300 | – | 70 to 300 | 670 to 2430 | – | Stable | inactive | 480 to 900 | concentration at 3 h [29]: 43 to 44 nM; fold change (FC) [30]: < 2; concentration at 1 h [31]: 1670 to 2160 nM; concentration at 0.25 h [32]: 10700 to 15200 nM; Activity (Plasmodium berghei [33]): inactive
5 | COc1cc2c(NC3CCN(Cc4ccccc4)CC3)nc(N3CCN(c4ccccc4)CC3)nc2cc1OCc1ccccc1 | > 295 | 100 | 39.9 | > 100000 | 81.3 | > 10000 | > 100000 | 34 | 5630 | 1600 | 280 to 390 | 380 to 940 | Toxic | Stable | – | 480 to 700 | Activity (Plasmodium berghei [34]): 2%; Activity [35]: Toxic; Activity (Plasmodium berghei [36]): Active; Activity [37]: Non-Toxic; Activity (Plasmodium berghei [38]): Active
6 | CCN(CC)CCCC(C)Nc1ccnc2cc(Cl)ccc12 (centres undefined) | – | – | – | – | – | – | – | – | – | – | – | – | – | – | – | – | Activity (Plasmodium berghei [39]): Active
